Assay results taken from US20110184027A1, “TISSUE SELECTIVE STEAROYL-COA DESATURASE 1 INHIBITORS AND CELL BASED SCREENING ASSAY FOR THEIR IDENTIFICATION” (GLENMARK PHARMACEUTICALS S.A., priority 2008, published 2011).

Key:
SCD-1 [1] = target: T1, SCD-1 (Homo sapiens, UniProt O00767); assay: Whole cell based SCD-1 assay in human liver cell line HepG2 (tritiated stearoyl CoA, labelled water release); set-up: includes cells which express the SCD-1 gene product endogenously; endogenous in cells; host or cells: A431 (ATCC CRL 1555), not induced; conditions: EC35
T1 sequence (O00767 1-359): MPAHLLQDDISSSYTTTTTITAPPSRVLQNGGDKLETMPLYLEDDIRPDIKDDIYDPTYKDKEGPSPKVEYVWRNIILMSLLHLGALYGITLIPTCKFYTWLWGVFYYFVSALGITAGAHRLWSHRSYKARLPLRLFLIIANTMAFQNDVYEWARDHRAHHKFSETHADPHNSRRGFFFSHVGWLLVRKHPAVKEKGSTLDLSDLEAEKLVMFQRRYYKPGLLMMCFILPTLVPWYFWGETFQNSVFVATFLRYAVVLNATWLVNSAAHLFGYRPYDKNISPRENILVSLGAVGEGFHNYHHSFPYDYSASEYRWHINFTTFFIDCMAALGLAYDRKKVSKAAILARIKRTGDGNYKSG
Description: (§1) An assay was developed using whole cells to screen for agents that modulate SCD-1 activity. Three cell lines namely human liver cell line (hepatocellular carcinoma HepG2 ATCC HB 8065), human skin cell line (epidermal carcinoma A431 ATCC CRL 1555) and human corneal epithelial progenitor (HCEP) cells (CELLNTEC advanced cell systems) were used. HepG2 cells were seeded in a 24 well plate in complete MEM medium (Hyclone). A431 cells were seeded in a 12 well plate in complete DMEM medium (Sigma). HCEP cells were seeded in a 96 well plate in defined corneal epithelial medium CnT 20 (CELLNTEC advanced cell systems). HepG2 cells were induced with LXR agonist T0901317 (Cayman chemicals) in medium containing high glucose and fatty acid free BSA for 3 days with media change every day (Wang et al, (2004) Journal of Lipid Research, 45, 972-980). A431 cells were not induced. (3). The cells were preincubated in plain medium with the known SCD-1 modulators namely CLA (conjugated linoleic acid) (Sigma) and TSA (9 thiastearic acid) (Cayman chemicals) for 15-30 minutes at 37 deg C. and further challenged with 0.25 to 7.5 μCi tritiated Stearoyl CoA (American Radiolabelled chemicals). The cells were incubated for last 6 hours in 5% CO2 incubator at 37 deg C. or in specific embodiments for 4 hours to 30 hours. At the end of the incubation, the incubation medium was collected into tubes. Dowex AG 1-X8 resin (Biorad laboratories) pre-equilibrated with distilled ethanol:water was added to the tubes to separate the unconsumed substrate from the labelled water. The tubes were then vortexed for 5 minutes and centrifuged at 14000 rpm for 20 minutes at room temperature. The supernatant from the tubes was mixed with the scintillation fluid and radioactivity counted in the Packard topcount scintillation counter (Perkin Elmer). Counts obtained were normalised per million cells. Inhibition of enzyme activity was calculated as the percent of maximum reaction control that contained no test compound.
(§2) The whole cell based assay was adapted to screen for agents that differentially modulate SCD-1 activity present in different tissues. Three cell lines namely human liver cell line (hepatocellular carcinoma HepG2), human skin cell line (epidermal carcinoma A431) and human corneal epithelial progenitor (HCEP) cells were used. HepG2 cells were seeded in a 24 well plate in complete MEM medium. A431 cells were seeded in a 12 well plate in complete DMEM medium. HCEP cells were seeded in a 96 well plate in defined corneal epithelial medium CnT 20. HepG2 cells were induced with LXR agonist T0901317 in medium containing 4.5 gm/litre glucose and 0.1% fatty acid free BSA for 3 days with media change every day (Wang et al, (2004) Journal of Lipid Research, 45, 972-980). A431 cells and HCEP cells were not induced. (3). The cells were preincubated in plain medium 0.1 nM to 10 μM concentrations potential SCD-1 modulator compounds for 15-30 minutes at 37 deg C. and further challenged with 0.25 to 7.5 μCi tritiated Stearoyl CoA. The cells were incubated for last 6 hours in 5% CO2 incubator at 37 deg C. or in specific embodiments for 4 hours to 30 hours. At the end of the incubation, the incubation medium was collected into tubes. Dowex AG 1-X8 resin pre-equilibrated with distilled ethanol:water was added to the tubes to separate the unconsumed substrate from the labelled water. The tubes were then vortexed for 5 minutes and centrifuged at 14000 rpm for 20 minutes at room temperature. The supernatant from the tubes was mixed with the scintillation fluid and radioactivity counted in the Packard topcount scintillation counter. Counts obtained were normalised per million cells. Inhibition of enzyme activity was calculated as the percent of maximum reaction control that contained no test compound. For active compounds, EC35 was calculated from dose response curve by non linear regression analysis using GraphPadPRISM software. The ratio of EC35 for skin cells to EC35 for liver cells was calculated. […]

SCD-1 [2] = target: T1, SCD-1; assay: Whole cell based SCD-1 assay in human skin cell line A431 (tritiated stearoyl CoA, labelled water release); set-up: includes cells which express the SCD-1 gene product endogenously; endogenous in cells; host or cells: A431 (ATCC CRL 1555), not induced; conditions: for IC35: EC35; for Fold Skin:liver: ratio of EC35 skin cells (A431) to EC35 liver cells (HepG2)
Description: as §1, §2

SCD-1 [3] = target: T1, SCD-1; assay: Whole cell based SCD-1 assay in human liver cell line HepG2 (tritiated stearoyl CoA, labelled water release); set-up: includes cells which express the SCD-1 gene product endogenously; endogenous in cells; host or cells: A431 (ATCC CRL 1555), not induced; conditions: for Fold Liver:skin: ratio of EC35 liver cells (HepG2) to EC35 skin cells (A431)
SCD-1 [4] = target: T1, SCD-1; assay: Whole cell based SCD-1 assay in human corneal epithelial progenitor (HCEP) cells; set-up: includes cells which express the SCD-1 gene product endogenously; endogenous in cells; conditions: for IC35: HCEP human corneal epithelial cells, EC35, read-out: hCornea EC35; for Fold Liver:Cornea: ratio of EC35 liver cells (HepG2) to EC35 corneal cells (HCEP)
Description: as §1
The whole cell based assay was adapted to screen for agents that differentially modulate SCD-1 activity present in different tissues. Three cell lines namely human liver cell line (hepatocellular carcinoma HepG2), human skin cell line (epidermal carcinoma A431) and human corneal epithelial progenitor (HCEP) cells were used. HepG2 cells were seeded in a 24 well plate in complete MEM medium. A431 cells were seeded in a 12 well plate in complete DMEM medium. HCEP cells were seeded in a 96 well plate in defined corneal epithelial medium CnT 20. HepG2 cells were induced with LXR agonist T0901317 in medium containing 4.5 gm/litre glucose and 0.1% fatty acid free BSA for 3 days with media change every day (Wang et al, (2004) Journal of Lipid Research, 45, 972-980). A431 cells and HCEP cells were not induced. (3). […] The cells were incubated for last 6 hours in 5% CO2 incubator at 37 deg C. or in specific embodiments for 4 hours to 30 hours. At the end of the incubation, the incubation medium was collected into tubes. […] The supernatant from the tubes was mixed with the scintillation fluid and radioactivity counted in the Packard topcount scintillation counter. […] Inhibition of enzyme activity was calculated as the percent of maximum reaction control that contained no test compound. For active compounds, EC35 was calculated from dose response curve by non linear regression analysis using GraphPadPRISM software. The ratio of EC35 for skin cells to EC35 for liver cells was calculated.

SCD-1 [5] = target: T1, SCD-1; assay: Whole cell based SCD-1 assay in human skin cell line A431 (tritiated stearoyl CoA, labelled water release); set-up: includes cells which express the SCD-1 gene product endogenously; endogenous in cells; host or cells: A431 (ATCC CRL 1555), not induced
[6] = HepG2 human liver cells, read-out: hLiver EC35
[7] = A-431, A431 human skin cells, read-out: hSkin EC35
[8] = HepG2 liver cells, LXR agonist induced, read-out: Inhibition of SCD-1 activity in whole cell based assay (EC35), HepG2

IC35 (SCD-1 [1]; [6]) [nM] | IC35 (SCD-1 [2]; [7]) [nM] | Fold Skin:liver (SCD-1 [2]) | Molecule | other results
39.5 | 37.8 | 0.95 | Cc1nc(-n2cnn(Cc3ccc(F)cc3)c2=O)sc1C(=O)NCc1ccccc1 [compound 2] | –
438 | 168 | – | Cc1nc(-c2ccc(-c3ccc(O)cc3)nc2)sc1C(=O)NCCc1ccccc1 [compound 2] | Fold Liver:skin (SCD-1 [3]): 2.60
490 | 982 | 2.00 | Cc1nc(C#Cc2ccc(O)cc2)sc1C(=O)NCCc1ccccc1 [compound 2] | –
29.4 | 33.8 | 1.15 | Cc1nc(-n2cnn(Cc3cccc(F)c3F)c2=O)sc1C(=O)NCc1ccccc1 [compound 3] | –
480 | – | – | Cc1nc(C#Cc2ccc(O)cc2)sc1C(=O)NCCc1ccc(F)cc1 [compound 2] | IC35 (SCD-1 [4]): 53.2 nM; Fold Liver:Cornea (SCD-1 [4]): 9.02
698 | > 10000 | >15 | Cc1nc(C#Cc2ccc(O)cc2)sc1C(=O)NCc1ccc(Cl)cc1 [compound 3] | –
3440 | 6900 | 2.00 | Cc1nc(C#Cc2cccc(O)c2)sc1C(=O)NCc1ccccc1 [compound 1] | –

The remaining lines, values behind:

Molecule | IC35 (SCD-1 [1]; [6]) [nM] | IC35 (SCD-1 [2]; [7]) [nM] | Fold Skin:liver (SCD-1 [2]) | other results
conjugated linoleic acid [CLA, reference compound] | – | – | – | IC35 (SCD-1 [1]; [8]): 22660 nM; Percentage inhibition of SCD-1, HCEP (SCD-1 [4]; HCEP corneal cells, at 300 μM): ~80% at 300 μM; IC35 (SCD-1 [2]; A431 skin cells, not induced, read-out: Inhibition of SCD-1 activity in whole cell based assay (EC35), A431): 16350 nM; Percentage inhibition of SCD-1, HepG2 (SCD-1 [3]; HepG2 cells, at 300 μM): (~80.01% at 300 μM); Percentage inhibition of SCD-1, A431 (SCD-1 [5]; A431 cells, at 300 μM): (~91% at 300 μM)
Cc1nc(-c2ccc(-c3ccc(O)cc3)nc2)sc1C(=O)NCCCc1ccccc1 [compound 1] | 266 | 180 | – | Fold Liver:skin (SCD-1 [3]): 1.47
Cc1nc(C#Cc2ccc(O)cc2)sc1C(=O)NCc1cccnc1 [compound 1] | 2300 | 2140 | 0.93 | –
Cc1nc(C#Cc2ccc(O)cc2)sc1C(=O)NCc1ccccc1 [compound 1] | 363 | – | – | IC35 (SCD-1 [4]): 218 nM; Fold Liver:Cornea (SCD-1 [4]): 1.66
CCCCCCCCCSCCCCCCCC(=O)O [TSA, 9 thiastearic acid, reference compound] | – | – | – | IC35 (SCD-1 [1]; [8]): ~100000 nM; IC35 (SCD-1 [2]; A-431, A431 skin cells, not induced, read-out: Inhibition of SCD-1 activity in whole cell based assay (EC35), A431): ~100000 nM; inhibition at 100 µM (SCD-1 [3]; HepG2, HepG2 liver cells, at 100 μM, read-out: Percentage inhibition of SCD-1, HepG2): 58%; inhibition at 100 µM (SCD-1 [5]; A-431, A431 skin cells, at 100 μM, read-out: Percentage inhibition of SCD-1, A431): 52%
